ChEMBL document CHEMBL5512663, “Design, synthesis, and evaluation of novel quindoline derivatives with fork-shaped side chains as RNA G-quadruplex stabilizers for repressing oncogene NRAS translation” (Eur J Med Chem, 2024)
One block for each compound: values may come before it. Active and inactive are the calls of the source. The rule behind the calls is not given here.

Key:
SK-MEL-2 [1] = test: Cytotoxicity against human SK-MEL-2 cells incubated for 48 hrs by MTT assay; type: functional, cell-based; settings: SK-MEL-2, 48 h
Quadruplex RNA [2] = test: Thermal stabilization of NRAS RNA G4 (unknown origin) assessed as change in melting temperature at 10 uM by CD spectrophotometer analysis; type: nucleic-acid assay
RNA = test: Thermal stabilization of RNA hairpin (unknown origin); type: nucleic-acid assay
Quadruplex RNA [3] = test: Binding affinity to NRAS RNA G4 (unknown origin) by SPR method; type: nucleic-acid assay
HepG2 = test: Cytotoxicity against human HepG2 cells incubated for 48 hrs by MTT assay; type: functional, cell-based; settings: HepG2, 48 h
Quadruplex RNA [4] = test: Induction of RNA G4s stabilization in human SK-MEL-2 cells assessed as increase in cytoplasmic rG4s after 24 hrs by immunofluorescence assay; type: cell-based
HL-60 = test: Cytotoxicity against human HL-60 cells incubated for 48 hrs by MTT assay; type: functional, cell-based; settings: HL-60, 48 h
SK-MEL-2 [5] = test: Antitumor activity against human SK-MEL-2 cells xenografted in BALB/c nude mouse assessed as reduction in tumor volume at 1 mg/kg, ip measured every 3 days; type: functional, organism-based; settings: time 21.0 day, TDE = time-dependent effect
Quadruplex DNA [6] = test: Thermal stabilization of NRAS DNA G4 (unknown origin) assessed as change in melting temperature at 10 uM by CD spectrophotometer analysis; type: nucleic-acid assay
[7] = Toxicity in BALB/c nude mouse assessed as distress at 1 mg/kg, ip administered every day for 21 days; type: organism-based; settings: in vivo, 504 h, time 21 day
Quadruplex RNA [8] = test: Induction of NRAS RNA G4 stabilization in human SK-MEL-2 cells transfected with NRAS 5'-UTR wild-type assessed as reduction in ratio of RL to FL at 0.5 uM incubated for 66 hrs by dual luciferase reporter gene assay; type: cell-based
SK-MEL-2 [9] = test: Inhibition of colony formation in human SK-MEL-2 cells at 0.13 to 0.25 uM after 10 days by crystal violet staining based assay; type: functional, cell-based; settings: dose 0.13-0.25 µM, time 10.0 day
[10] = Toxicity in BALB/c nude mouse assessed as weight loss at 1 mg/kg, ip administered every day for 21 days and measured every 3 days; type: organism-based; settings: in vivo, 504 h, time 21 day
SK-MEL-2 [11] = test: Downregulation of NRAS mRNA level in human SK-MEL-2 cells by qRT-PCR analysis; type: functional, cell-based
SK-MEL-2 [12] = test: Antitumor activity against human SK-MEL-2 cells xenografted in BALB/c nude mouse assessed as reduction in tumor growth inhibition at 1 mg/kg, ip administered every day for 21 days; type: functional; settings: SK-MEL-2, 504 h, time 21 day, read-out: TGI
SK-MEL-2 [13] = test: Antitumor activity against human SK-MEL-2 cells xenografted in BALB/c nude mouse assessed as reduction in tumor weight at 1 mg/kg, ip; type: functional, organism-based; settings: time 21.0 day, TDE = time-dependent effect
Quadruplex RNA [14] = test: Induction of NRAS RNA G4 stabilization in human SK-MEL-2 cells transfected with NRAS mutant assessed as reduction in ratio of RL to FL at 0.5 uM incubated for 66 hrs by dual luciferase reporter gene assay; type: cell-based
[15] = Thermal stabilization of thrombin binding aptamer (unknown origin)
SK-MEL-2 [16] = test: Antiproliferative activity against human SK-MEL-2 cells at 0.25 uM incubated for 48 hrs by MTT assay; type: functional
[17] = Drug localization in human SK-MEL-2 cells cytoplasm at 0.5 uM incubated for 24 hrs by laser scanning confocal microscopy; type: ADME, subcellular; settings: sk-mel-2, 24 h
[18] = Toxicity in BALB/c nude mouse assessed as organ damage at 1 mg/kg, ip administered every day for 21 days; type: organism-based; settings: in vivo, 504 h, time 21 day
MCF7 = test: Cytotoxicity against human MCF7 cells incubated for 48 hrs by MTT assay; type: functional, cell-based; settings: MCF7, 48 h
Quadruplex DNA [19] = test: Thermal stabilization of KRAS G4 (unknown origin); type: nucleic-acid assay
[20] = Toxicity in BALB/c nude mouse assessed as pain at 1 mg/kg, ip administered every day for 21 days; type: organism-based; settings: in vivo, 504 h, time 21 day
dsDNA = test: Thermal stabilization of DNA duplex (ds18) (unknown origin); type: nucleic-acid assay
SK-MEL-2 [21] = test: Downregulation of NRAS protein level in human SK-MEL-2 cells after 72 hrs by Western blotting analysis; type: functional, cell-based; settings: dose 0.5-1 µM
[22] = Toxicity in BALB/c nude mouse assessed as discomfort at 1 mg/kg, ip administered every day for 21 days; type: organism-based; settings: in vivo, 504 h, time 21 day
A-375 = test: Cytotoxicity against human A-375 cells incubated for 48 hrs by MTT assay; type: functional, cell-based; settings: A-375, 48 h

ΔTm (Quadruplex RNA [2]): 30.6 °C
Structure (SMILES): CCCCN(CCCC)CCOc1ccc2nc3c(oc4ccc(F)cc43)c(NCCN3CCN(C)CC3)c2c1
IC50 (SK-MEL-2 [1]): 7.6 µM

ΔTm (Quadruplex RNA [2]): 18.1 °C
Structure (SMILES): CN(C)CCNc1c2cc(OCCN3CCCCCC3)ccc2nc2c1oc1ccc(F)cc12
IC50 (SK-MEL-2 [1]): 6.6 µM

ΔTm (Quadruplex RNA [2]): 21.2 °C
Structure (SMILES): CCN(CC)CCCOc1ccc2nc3c(oc4ccc(F)cc43)c(NCCN)c2c1
IC50 (SK-MEL-2 [1]): 6.7 µM

ΔTm (Quadruplex RNA [2]): 24.4 °C
Structure (SMILES): CCCCN(CCCC)CCCOc1ccc2nc3c(oc4ccc(F)cc43)c(NCCN3CCCCC3)c2c1
IC50 (SK-MEL-2 [1]): 5.5 µM

ΔTm (Quadruplex RNA [2]): 19.8 °C
Structure (SMILES): CCCCN(CCCC)CCCNc1ccc2nc3c(oc4ccc(F)cc43)c(NCCN3CCCC3)c2c1
IC50 (SK-MEL-2 [1]): 3.4 µM

ΔTm (Quadruplex RNA [2]): 26.3 °C
Structure (SMILES): CCN(CC)CCCOc1ccc2nc3c(oc4ccc(F)cc43)c(NCCN(C)C)c2c1
IC50 (SK-MEL-2 [1]): 6.4 µM

ΔTm (Quadruplex RNA [2]): 25.3 °C
Structure (SMILES): CN(C)CCCCCCOc1ccc2nc3c(oc4ccc(F)cc43)c(NCCCN)c2c1
IC50 (SK-MEL-2 [1]): 7.7 µM

ΔTm (Quadruplex RNA [2]): 20.2 °C
Structure (SMILES): CCCCN(CCCC)CCCOc1ccc2nc3c(oc4ccccc43)c(NCCN3CCCC3)c2c1
IC50 (SK-MEL-2 [1]): 4.5 µM

ΔTm (Quadruplex RNA [2]): 22.1 °C
Structure (SMILES): CCCCN(CCCC)CCOc1ccc2nc3c(oc4ccc(F)cc43)c(NCCCN)c2c1
IC50 (SK-MEL-2 [1]): 2 µM

ΔTm (Quadruplex RNA [2]): 20.8 °C
Structure (SMILES): CCCCN(CCCC)CCCOc1ccc2nc3c(oc4ccc(F)cc43)c(NCCN3CCCC3)c2c1
IC50 (SK-MEL-2 [1]): 4 µM

ΔTm (Quadruplex RNA [2]): 25.5 °C
Structure (SMILES): CCCCN(CCCC)CCCNc1ccc2nc3c(oc4ccc(F)cc43)c(NCCN3CCN(C)CC3)c2c1
IC50 (SK-MEL-2 [1]): 4.3 µM

ΔTm (Quadruplex RNA [2]): 25.3 °C
Structure (SMILES): CCN(CC)CCCOc1ccc2nc3c(oc4ccc(F)cc43)c(NCCCN)c2c1
IC50 (SK-MEL-2 [1]): 3.9 µM

ΔTm (Quadruplex RNA [2]): 26.2 °C
Structure (SMILES): CCCCN(CCCC)CCOc1ccc2nc3c(oc4ccc(F)cc43)c(NCCN3CCCCC3)c2c1
IC50 (SK-MEL-2 [1]): 8.8 µM

ΔTm (Quadruplex RNA [2]): 18.1 °C
Structure (SMILES): NCCNc1c2cc(OCCN3CCCCCC3)ccc2nc2c1oc1ccc(F)cc12
IC50 (SK-MEL-2 [1]): 6.3 µM

ΔTm (Quadruplex RNA [2]): 19.5 °C
Structure (SMILES): CCCCN(CCCC)CCCOc1ccc2nc3c(oc4ccccc43)c(NCCCN)c2c1
IC50 (SK-MEL-2 [1]): 2.6 µM

ΔTm (Quadruplex RNA [2]): 24 °C
Structure (SMILES): CCCCN(CCCC)CCOc1ccc2nc3c(oc4ccc(F)cc43)c(NCCN3CCCC3)c2c1
IC50 (SK-MEL-2 [1]): 5.1 µM

ΔTm (Quadruplex RNA [2]): 31.8 °C
Structure (SMILES): CCCCN(CCCC)CCCOc1ccc2nc3c(oc4ccc(F)cc43)c(NCCN3CCN(C)CC3)c2c1
IC50 (SK-MEL-2 [1]): 4 µM

ΔTm (Quadruplex RNA [2]): 21.3 °C
Structure (SMILES): CCCCN(CCCC)CCCNc1ccc2nc3c(oc4ccc(F)cc43)c(NCCN3CCCCC3)c2c1
IC50 (SK-MEL-2 [1]): 5.4 µM

ΔTm (Quadruplex RNA [2]): 26.3 °C
Structure (SMILES): CCCCN(CCCC)CCOc1ccc2nc3c(oc4ccc(F)cc43)c(NCCN(C)C)c2c1
IC50 (SK-MEL-2 [1]): 4.5 µM

ΔTm (Quadruplex RNA [2]): 22.9 °C
Structure (SMILES): CCCCN(CCCC)CCCOc1ccc2nc3c(oc4ccc(F)cc43)c(NCCN)c2c1
IC50 (SK-MEL-2 [1]): 2.2 µM

ΔTm (Quadruplex RNA [2]): 21.4 °C
Structure (SMILES): Fc1ccc2oc3c(NCCN4CCCC4)c4cc(OCCN5CCCCCC5)ccc4nc3c2c1
IC50 (SK-MEL-2 [1]): 6.9 µM

ΔTm (Quadruplex RNA [2]): 26.3 °C
Structure (SMILES): CCN(CC)CCCOc1ccc2nc3c(oc4ccc(F)cc43)c(NCCN3CCCC3)c2c1
IC50 (SK-MEL-2 [1]): 7.1 µM

ΔTm (Quadruplex RNA [2]): 19.3 °C
Structure (SMILES): CCCCN(CCCC)CCCNc1ccc2nc3c(oc4ccc(F)cc43)c(NCCCN)c2c1
IC50 (SK-MEL-2 [1]): 4.5 µM

ΔTm (Quadruplex RNA [2]): 24.1 °C
Structure (SMILES): CN(C)CCCCCCOc1ccc2nc3c(oc4ccc(F)cc43)c(NCCN(C)C)c2c1
IC50 (SK-MEL-2 [1]): 7.2 µM

ΔTm (Quadruplex RNA [2]): 22 °C
Structure (SMILES): CCCCN(CCCC)CCCOc1ccc2nc3c(oc4ccccc43)c(NCCN(C)C)c2c1
IC50 (SK-MEL-2 [1]): 5.7 µM

ΔTm (Quadruplex RNA [2]): 16.8 °C
Structure (SMILES): CSc1ccc(/C=C/c2ccc3nc4c(oc5ccccc54)c(NCCN4CCN(C)CC4)c3c2)cc1
IC50 (SK-MEL-2 [1]): 3.2 µM

ΔTm (Quadruplex RNA [2]): 23.9 °C
Structure (SMILES): CCCCN(CCCC)CCCOc1ccc2nc3c(oc4ccc(F)cc43)c(NCCN(C)C)c2c1
IC50 (SK-MEL-2 [1]): 4 µM

ΔTm (Quadruplex RNA [2]): 24.8 °C
Structure (SMILES): CN(C)CCCCCCOc1ccc2nc3c(oc4ccc(F)cc43)c(NCCN3CCCC3)c2c1
IC50 (SK-MEL-2 [1]): 7.4 µM

ΔTm (Quadruplex RNA [2]): 19.4 °C
Structure (SMILES): CCCCN(CCCC)CCCNc1ccc2nc3c(oc4ccc(F)cc43)c(NCCN(C)C)c2c1
IC50 (SK-MEL-2 [1]): 3.4 µM

Activity (RNA): inactive
Kd (Quadruplex RNA [3]): 2.31 µM
ΔTm (Quadruplex DNA [6]): 19 °C
Activity [15]: inactive
Drug uptake [17]: Active
Activity (Quadruplex DNA [19]): inactive
ΔTm (Quadruplex RNA [2]): 26.1 °C
Activity (dsDNA): inactive
Structure (SMILES): CCCCN(CCCC)CCCOc1ccc2nc3c(oc4ccc(F)cc43)c(NCCCN)c2c1
IC50 (HepG2): 1.5 µM
Activity (Quadruplex RNA [4]): Active
IC50 (HL-60): 2.7 µM
Activity (SK-MEL-2 [5]): Tde
IC50 (SK-MEL-2 [1]): 2 µM
Activity [7]: Non-Toxic
Activity (Quadruplex RNA [8]): Active
inhibition (SK-MEL-2 [9]): Active
Activity [10]: Non-Toxic
Activity (SK-MEL-2 [11]): inactive
inhibition in vivo at 1 mg/kg (SK-MEL-2 [12]): 54.9%
Activity (SK-MEL-2 [13]): Tde
Activity (Quadruplex RNA [14]): inactive
Activity (SK-MEL-2 [16]): 100%
Activity [18]: Non-Toxic
IC50 (MCF7): 4.1 µM
Activity [20]: Non-Toxic
Activity (SK-MEL-2 [21]): Dose-Dependent Effect
Activity [22]: Non-Toxic
IC50 (A-375): 4.5 µM

ΔTm (Quadruplex RNA [2]): 24.2 °C
Structure (SMILES): NCCCNc1c2cc(OCCN3CCCCCC3)ccc2nc2c1oc1ccc(F)cc12
IC50 (SK-MEL-2 [1]): 5.4 µM

ΔTm (Quadruplex RNA [2]): 20.7 °C
Structure (SMILES): CN(C)CCCCCCOc1ccc2nc3c(oc4ccc(F)cc43)c(NCCN)c2c1
IC50 (SK-MEL-2 [1]): 7.1 µM

ΔTm (Quadruplex RNA [2]): 13.4 °C
Structure (SMILES): CCCCN(CCCC)CCOc1ccc2nc3c(oc4ccc(F)cc43)c(NCCN)c2c1
IC50 (SK-MEL-2 [1]): 5.1 µM
